Measurements: patent publication US8765730B2 (Hoffmann-La Roche Inc, priority 2010, dated 2014)

Biological target: T1, human GPBAR1 receptor (Homo sapiens, UniProt Q8TDU6)
T1 construct: expressed in transfected cells
T1 sequence (Q8TDU6 1-330): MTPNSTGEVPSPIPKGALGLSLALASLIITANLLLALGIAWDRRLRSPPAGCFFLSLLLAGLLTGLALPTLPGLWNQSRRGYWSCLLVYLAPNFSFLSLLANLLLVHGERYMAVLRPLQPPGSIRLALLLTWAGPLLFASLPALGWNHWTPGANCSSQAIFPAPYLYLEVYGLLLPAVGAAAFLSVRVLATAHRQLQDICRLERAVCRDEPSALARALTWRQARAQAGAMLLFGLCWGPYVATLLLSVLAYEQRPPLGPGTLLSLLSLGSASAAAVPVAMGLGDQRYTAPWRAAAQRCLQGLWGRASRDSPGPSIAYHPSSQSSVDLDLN
Assay: functional cAMP assay in CHO-dhfr(minus) cells expressing human GPBAR1 receptors
Type: cell-based
Conditions: human EC50, functional cAMP assay, 30 min at 30° C.
Method in brief: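 Agonist cAMP read-out: stable GPBAR1 CHO-dhfr− clone, 30 min compound exposure at 30° C following 30 min IBMX (1 mM) preincubation in Krebs Ringer bicarbonate. Time-resolved energy-transfer detection gives EC50; parental CHO cells serve as counter-screen.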

EC50 [nM]	Compound
348	CCOC(=O)c1ccc(-c2ccc([C@@H](C/C(=N\O)c3ccc(=O)n(C)c3)c3ccc(Cl)cc3F)cc2)s1 [Example 467, 5-{4-[(−)-1-(4-Chloro-2-fluoro-phenyl)-3-[(E)-hydroxyimino]-3-(1-methyl-6-oxo-1,6-dihydro-pyridin-3-yl)-propyl]-phenyl}-thiophene-2-carboxylic acid ethyl ester]
12	COc1cc(-c2ccc(C(C/C(=N\O)c3ccnc(C)c3)c3ccc(Cl)cc3F)cc2)ccc1C(=O)O (centres unmarked) [Example 455, 4′-[1-(4-Chloro-2-fluoro-phenyl)-3-[(E)-hydroxyimino]-3-(2-methyl-pyridin-4-yl)-propyl]-3-methoxy-biphenyl-4-carboxylic acid]
43	Cn1cc(/C(CC(c2ccc(-c3ccc(C(=O)O)c(F)c3)cc2)c2ccc(Cl)cc2Cl)=N/O)ccc1=O (single isomer, unassigned) [Example 474, 4′-[(−)-1-(2,4-Dichloro-phenyl)-3-[(E)-hydroxyimino]-3-(1-methyl-6-oxo-1,6-dihydro-pyridin-3-yl)-propyl]-3-fluoro-biphenyl-4-carboxylic acid]
17	Cc1cc(/C(CC(c2ccc(-c3ccc(C(=O)O)s3)cc2)c2ccc(Cl)cc2F)=N/O)ccn1 (centres unmarked) [Example 457, 5-{4-[1-(4-Chloro-2-fluoro-phenyl)-3-[(E)-hydroxyimino]-3-(2-methyl-pyridin-4-yl)-propyl]-phenyl}-thiophene-2-carboxylic acid]
127	Cc1cc(/C(C[C@H](c2ccc(C3CNC3)cc2)c2ccccc2C)=N/O)ccn1 [Example 482, (R,E)-3-(4-(Azetidin-3-yl)phenyl)-1-(2-methylpyridin-4-yl)-3-o-tolylpropan-1-one oxime]
2	Cc1cc(/C(C[C@H](c2ccc(N3C[C@@H]4C(C(=O)O)[C@@H]4C3)cc2)c2ccc(F)cc2F)=N/O)ccn1 (single isomer, unassigned) [Example 429]

Further lines, the compound ahead of its results:

Compound	EC50 [nM]
Cc1cc(F)ccc1C(C/C(=N\O)c1ccc(=O)n(C)c1)c1ccc(-c2ccc(NC(=O)CCC(=O)O)cc2)cc1 (centres unmarked) [Example 392, N-{4′-[1-(4-Fluoro-2-methyl-phenyl)-3-[(E)-hydroxyimino]-3-(1-methyl-6-oxo-1,6-dihydro-pyridin-3-yl)-propyl]-biphenyl-4-yl}-succinamic acid]	54
O=C(O)c1ccc(-c2ccc(C(C/C(=N\O)c3ccncc3)c3ccccc3)cc2)cc1 (centres unmarked) [Example 77, 4′-{3-[(E)-Hydroxyimino]-1-phenyl-3-pyridin-4-yl-propyl}-biphenyl-4-carboxylic acid]	269
Cc1cc(/C(C[C@H](c2ccc(C(=O)NC[C@H](C)O)cc2)c2ccccc2C)=N/O)ccn1 [Example 275, 4-[(R)-3-[(E)-Hydroxyimino]-3-(2-methyl-pyridin-4-yl)-1-o-tolyl-propyl]-N—((S)-2-hydroxy-propyl)-benzamide]	26
Cc1cc(Cl)ccc1C(C/C(=N\O)c1ccc(=O)n(CCC(=O)O)c1)c1ccc(S(C)(=O)=O)cc1 (centres unmarked) [Example 345, (E)-3-(5-(3-(4-Chloro-2-methylphenyl)-1-(hydroxyimino)-3-(4-(methylsulfonyl)phenyl)-propyl)-2-oxopyridin-1(2H)-yl)propanoic acid]	> 10000
Cc1ccccc1C(C/C(=N/O)c1ccncc1)c1ccc(-c2cncnc2)cc1 (single isomer, unassigned; (+)) [Example 38, (+)-(Z)-1-pyridin-4-yl-3-(4-pyrimidin-5-yl-phenyl)-3-o-tolyl-propan-1-one oxime]	7650
Cc1cc(F)ccc1C(C/C(=N\O)c1ccc(=O)n(C)c1)c1ccc(Br)cc1 (centres unmarked) [Example 224, (E)-5-(3-(4-Bromophenyl)-3-(4-fluoro-2-methylphenyl)-1-(hydroxyimino)propyl)-1-methylpyridin-2(1H)-one]	6
Cn1cc(/C(CC(c2cccc(C(=O)NCCO)c2)c2ccc(Cl)cc2F)=N/O)ccc1=O (centres unmarked) [Example 320, (E)-3-(1-(4-Chloro-2-fluorophenyl)-3-(hydroxyimino)-3-(1-methyl-6-oxo-1,6-dihydro-pyridin-3-yl)propyl)-N-(2-hydroxyethyl)benzamide]	3370
CCC(CC(=NO)c1ccncc1)c1cccc(Br)c1 (racemic) [Example 13, 3-(3-Bromo-phenyl)-1-pyridin-4-yl-pentan-1-one oxime]	173
OCc1ccc(-c2ccc(C(C/C(=N\O)c3ccncc3)c3ccccc3)cc2)cc1 (centres unmarked) [Example 27, (E)-3-(4′-Hydroxymethyl-biphenyl-4-yl)-3-phenyl-1-pyridin-4-yl-propan-1-one oxime]	92
Cc1cc(F)ccc1C(C/C(=N\O)c1ccc(=O)n(C)c1)c1ccc(-c2ccc(C(=O)O)cc2)cc1 (centres unmarked) [Example 225, (E)-4′-(1-(4-Fluoro-2-methylphenyl)-3-(hydroxyimino)-3-(1-methyl-6-oxo-1,6-dihydropyridin-3-yl)propyl)biphenyl-4-carboxylic acid]	49

Test system: not given
Assay: not given
Conditions: IV infusion (0.8 μmol/kg/min) for 90 min, obese and normal human subjects, over 24 hours; cited from earlier work

Compound	reduced food intake [%]
PYY3-36	33
